Test results published in ChEMBL document CHEMBL3879905, “Methods of using macrocyclic modulators of the ghrelin receptor” (2013).
Activity calls are given as the source filed them. The rule behind the calls is not given here.

How the values were obtained:
Rattus norvegicus [1] = experiment: Induction of gastric emptying of solid meal in Wistar rat gastroparesis model at 10 mg/kg, iv administered immediately post phenol red containing methylcellulose meal intake measured after 15 mins by colorimetric method relative to vehicle-treated control; type: functional, Stomach
Rattus norvegicus [2] = experiment: Gastrokinetic activity in Wistar rat gastroparesis model at 10 mg/kg, iv administered immediately post phenol red containing methylcellulose meal intake measured after 15 mins by colorimetric method relative to vehicle-treated control; type: functional, organism-based
Rattus norvegicus [3] = experiment: Induction of gastric emptying of solid meal in Wistar rat gastroparesis model at 100 ug/kg, iv administered immediately post phenol red containing methylcellulose meal intake measured after 15 mins by colorimetric method relative to vehicle-treated control; type: functional, Stomach
[4] = Metabolic stability in human plasma assessed as compound recovery in presence of PBS at 2 hrs by LC-MS analysis; type: ADME, cell-free; settings: read-out: Drug recovery
Cytochrome P450 3A4 = Cytochrome P450 3A4 (Homo sapiens, UniProt P08684); experiment: Inhibition of human CYP3A4 at 0.0457 to 100 uM; type: ADME
Cytochrome P450 3A4, sequence (P08684 whole entry): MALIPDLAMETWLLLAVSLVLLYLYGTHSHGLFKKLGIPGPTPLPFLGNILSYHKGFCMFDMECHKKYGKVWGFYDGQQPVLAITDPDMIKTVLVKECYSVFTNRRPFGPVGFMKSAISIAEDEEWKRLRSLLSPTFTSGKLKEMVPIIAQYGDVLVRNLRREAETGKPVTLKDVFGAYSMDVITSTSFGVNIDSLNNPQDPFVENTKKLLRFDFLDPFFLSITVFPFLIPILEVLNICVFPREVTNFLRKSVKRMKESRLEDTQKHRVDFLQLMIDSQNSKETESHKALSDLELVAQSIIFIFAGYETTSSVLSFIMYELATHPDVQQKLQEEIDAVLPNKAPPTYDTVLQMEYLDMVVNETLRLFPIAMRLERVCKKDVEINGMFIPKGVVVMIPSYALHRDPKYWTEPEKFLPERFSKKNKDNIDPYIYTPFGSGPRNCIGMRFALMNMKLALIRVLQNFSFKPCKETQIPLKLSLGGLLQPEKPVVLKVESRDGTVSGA

| SMILES | Activity (Rattus norvegicus [1]) | Activity (Rattus norvegicus [2]) | Activity (Rattus norvegicus [3]) | remaining at 2 h [4] | inhibition (INH) (Cytochrome P450 3A4) |
| --- | --- | --- | --- | --- | --- |
| CCN(CC)CCNC(=O)c1cc(Cl)c(N)cc1OC.Cl | 41% | Active | – | – | – |
| C[C@@H]1CN[C@@H](C2CC2)C(=O)N(C)[C@H](C)C(=O)N[C@H](Cc2ccc(F)cc2)C(=O)NCCCc2ccccc2O1 [ULIMORELIN] | – | – | 30 - 39% | 99% | Active |
